Laboratory results reported in patent US9802941B2, “Compounds and methods for inhibiting histone demethylases” (Gilead Sciences, Inc., priority 2014, dated 2017).
Like-named read-outs stand apart in the source and are kept apart here.

Experiments:
Type in all cases: biochemical
KDM6A (UTX) = biological target: T1, KDM6A (UTX) (Homo sapiens, UniProt O15550); experiment: Histone lysine demethylase AlphaLISA assay, KDM6A
T1 construct: KDM6A (UTX); BRIC; 919-1401; E. coli; host or cells: E. coli
Protocol: The compounds of the application, or a pharmaceutically acceptable salt, or solvate, or prodrug thereof, are tested in an in vitro AlphaLISA assay. Enzymes are dissolved in enzyme buffer and incubated before they are added to DMSO solutions of compounds of the application, or a pharmaceutically acceptable salt, or solvate, or prodrug thereof, in enzyme buffer. The reaction mixture is then incubated for an additional period of time before substrate solution is added and then the resulting mixture again incubated. Acceptor beads and suspended Epigenetic Buffer from stock are added and the suspension is again incubated before a suspension of streptavidin donor beads in Epigenetic Buffer is added. After an additional period of incubation, the plates are read.
The ability of compounds of the application to inhibit the histone lysine demethylase activity in vitro of different enzymes was determined.
The reaction mixture was incubated for another 10 minutes before 5 μL of substrate solution was added and the resulting mixture was then incubated at room temperature. […] After incubation at room temperature in the dark, the plates were read.
Enzyme Buffer: 50 mM Hepes (pH 7.4-8.0), 0.003-0.01% Tween-20, 0.1% BSA; 5 μM (NH4)2Fe(SO4)2.

KDM2B (FBXL10) = biological target: T2, KDM2B (FBXL10) (Homo sapiens, UniProt Q8NHM5); experiment: Histone lysine demethylase AlphaLISA assay, KDM2B; details: AlphaLISA, in vitro; read-out: HDME Inhibition KDM2B
T2 construct: KDM2B; BPS,; 1-650; Bac; purchased BPS Bioscience, US; host or cells: baculovirus system
T2 sequence (Q8NHM5 1-650): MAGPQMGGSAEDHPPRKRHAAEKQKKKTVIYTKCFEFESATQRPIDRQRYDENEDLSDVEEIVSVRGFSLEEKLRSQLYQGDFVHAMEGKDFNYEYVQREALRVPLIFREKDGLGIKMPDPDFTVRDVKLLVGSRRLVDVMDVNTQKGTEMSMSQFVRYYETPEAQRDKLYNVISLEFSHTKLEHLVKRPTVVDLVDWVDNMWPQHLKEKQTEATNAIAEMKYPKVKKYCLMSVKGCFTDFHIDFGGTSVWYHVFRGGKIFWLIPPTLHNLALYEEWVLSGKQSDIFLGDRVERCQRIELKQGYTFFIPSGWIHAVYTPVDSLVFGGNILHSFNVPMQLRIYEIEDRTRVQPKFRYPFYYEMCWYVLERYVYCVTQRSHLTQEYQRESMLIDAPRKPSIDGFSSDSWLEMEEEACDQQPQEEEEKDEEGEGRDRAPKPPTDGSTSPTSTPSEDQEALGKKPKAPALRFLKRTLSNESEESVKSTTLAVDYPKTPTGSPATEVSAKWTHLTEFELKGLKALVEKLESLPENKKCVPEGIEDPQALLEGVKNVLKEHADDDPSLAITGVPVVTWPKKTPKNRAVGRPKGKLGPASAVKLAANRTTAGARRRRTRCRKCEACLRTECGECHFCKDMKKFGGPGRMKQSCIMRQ
Outline: (§1)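 AlphaLISA readout after sequential addition of acceptor beads and streptavidin donor beads, incubated at room temperature in the dark. Demethylase reaction ran at room temperature following a 10-minute enzyme–compound preincubation in 50 mM Hepes (pH 7.4-8.0), 0.1% BSA, Tween-20, 5 μM (NH4)2Fe(SO4)2.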

KDM5B (PLU-1) = biological target: T3, KDM5B (PLU-1) (Homo sapiens, UniProt Q9UGL1); experiment: Histone lysine demethylase AlphaLISA assay, KDM5B
T3 construct: BRIC; 1-809; E. coli; host or cells: E. coli
T3 sequence (Q9UGL1 1-809): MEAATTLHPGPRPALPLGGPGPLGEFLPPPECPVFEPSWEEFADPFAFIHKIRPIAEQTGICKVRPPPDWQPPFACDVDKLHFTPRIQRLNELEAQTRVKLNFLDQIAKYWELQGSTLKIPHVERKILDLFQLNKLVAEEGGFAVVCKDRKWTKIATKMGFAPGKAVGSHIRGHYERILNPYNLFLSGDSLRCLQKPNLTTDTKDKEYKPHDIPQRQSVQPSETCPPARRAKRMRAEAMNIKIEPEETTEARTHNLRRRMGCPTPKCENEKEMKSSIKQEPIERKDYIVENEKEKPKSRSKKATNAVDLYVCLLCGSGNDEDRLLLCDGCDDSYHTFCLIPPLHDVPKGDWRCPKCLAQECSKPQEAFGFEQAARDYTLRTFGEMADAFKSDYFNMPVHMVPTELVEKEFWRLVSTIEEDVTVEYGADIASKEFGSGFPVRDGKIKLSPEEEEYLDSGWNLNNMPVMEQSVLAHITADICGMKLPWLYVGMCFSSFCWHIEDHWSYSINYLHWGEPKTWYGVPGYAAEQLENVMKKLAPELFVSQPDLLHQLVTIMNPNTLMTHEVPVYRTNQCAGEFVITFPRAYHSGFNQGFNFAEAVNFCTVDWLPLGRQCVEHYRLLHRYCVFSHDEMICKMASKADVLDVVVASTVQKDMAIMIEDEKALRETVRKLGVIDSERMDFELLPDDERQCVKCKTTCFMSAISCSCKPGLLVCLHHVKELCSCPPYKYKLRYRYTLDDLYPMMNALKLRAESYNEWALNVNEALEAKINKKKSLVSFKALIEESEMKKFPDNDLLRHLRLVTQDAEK
Outline: as §1

PHF8 (KDM7) = biological target: T4, PHF8 (KDM7) (Homo sapiens, UniProt Q9UPP1); experiment: Histone lysine demethylase AlphaLISA assay, PHF8
T4 construct: KDM7 (PHF8); BRIC; 1-1322; Bac
Outline: as §1

KDM4C (JMJD2C) = biological target: T5, KDM4C (JMJD2C) (Homo sapiens, UniProt Q9H3R0); experiment: Histone lysine demethylase AlphaLISA assay, KDM4C
T5 construct: KDM4C; BRIC, Denmark; 1-349; E. coli; host or cells: E. coli
T5 sequence (Q9H3R0 1-349): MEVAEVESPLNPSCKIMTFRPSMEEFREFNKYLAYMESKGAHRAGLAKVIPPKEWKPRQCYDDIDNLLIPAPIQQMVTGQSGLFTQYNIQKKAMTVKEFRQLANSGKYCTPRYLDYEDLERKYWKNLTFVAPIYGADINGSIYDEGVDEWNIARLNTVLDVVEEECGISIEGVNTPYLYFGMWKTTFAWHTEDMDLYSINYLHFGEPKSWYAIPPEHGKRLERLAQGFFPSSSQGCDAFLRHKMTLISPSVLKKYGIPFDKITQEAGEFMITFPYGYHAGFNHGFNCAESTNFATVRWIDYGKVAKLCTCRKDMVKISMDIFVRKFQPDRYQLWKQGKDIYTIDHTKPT
Outline: as §1

[1] = AlphaLISA assay, read-out: HDME Inhibition KDM6A (IC50)
[2] = AlphaLISA, in vitro, read-out: HDME Inhibition KDM6A
[3] = AlphaLISA assay, read-out: HDME Inhibition KDM5B (IC50)
[4] = AlphaLISA, in vitro, read-out: HDME Inhibition KDM5B
[5] = AlphaLISA, in vitro, read-out: HDME Inhibition PHF8
[6] = AlphaLISA assay, read-out: HDME Inhibition KDM4C (IC50)
[7] = AlphaLISA, in vitro, read-out: HDME Inhibition KDM4C
[8] = AlphaLISA assay, read-out: HDME Inhibition PHF8 (IC50)

T1 sequence (O15550 919-1401): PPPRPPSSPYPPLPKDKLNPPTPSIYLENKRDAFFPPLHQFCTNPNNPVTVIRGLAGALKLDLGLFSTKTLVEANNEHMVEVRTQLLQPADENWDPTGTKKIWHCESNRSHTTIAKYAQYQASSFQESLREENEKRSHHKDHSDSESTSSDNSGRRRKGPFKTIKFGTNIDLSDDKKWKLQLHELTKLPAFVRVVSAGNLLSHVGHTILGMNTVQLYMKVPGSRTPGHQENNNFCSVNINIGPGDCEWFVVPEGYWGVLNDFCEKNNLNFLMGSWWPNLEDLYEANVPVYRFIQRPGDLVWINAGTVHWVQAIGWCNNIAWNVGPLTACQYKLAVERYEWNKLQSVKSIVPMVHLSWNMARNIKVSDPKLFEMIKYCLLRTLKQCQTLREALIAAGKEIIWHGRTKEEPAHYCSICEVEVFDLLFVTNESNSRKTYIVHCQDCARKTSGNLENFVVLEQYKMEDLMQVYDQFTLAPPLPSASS
T4 sequence (Q9UPP1 37-440 limits assumed): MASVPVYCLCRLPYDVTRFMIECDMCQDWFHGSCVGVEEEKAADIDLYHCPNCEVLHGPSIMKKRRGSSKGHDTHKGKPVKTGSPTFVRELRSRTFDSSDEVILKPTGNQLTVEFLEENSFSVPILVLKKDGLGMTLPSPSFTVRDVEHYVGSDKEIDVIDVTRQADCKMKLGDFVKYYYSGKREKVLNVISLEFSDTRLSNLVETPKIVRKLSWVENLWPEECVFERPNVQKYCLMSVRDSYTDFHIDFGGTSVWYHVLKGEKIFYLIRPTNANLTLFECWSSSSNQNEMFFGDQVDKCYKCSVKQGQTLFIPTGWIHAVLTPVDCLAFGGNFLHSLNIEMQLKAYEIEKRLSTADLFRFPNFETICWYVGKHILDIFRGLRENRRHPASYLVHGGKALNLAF

IC50 (KDM6A (UTX); [1])	IC50 (KDM6A (UTX); [2])	IC50 (KDM2B (FBXL10))	IC50 (KDM5B (PLU-1); [3])	IC50 (KDM5B (PLU-1); [4])	IC50 (PHF8 (KDM7); [5])	IC50 (KDM4C (JMJD2C); [6])	IC50 (KDM4C (JMJD2C); [7])	IC50 (PHF8 (KDM7); [8])	IC50 (KDM5B (PLU-1))	Structure (SMILES)
> 10 µM	> 10 µM	0.431 µM	> 10 µM	> 10 µM	0.352 µM	> 10 µM	> 10 µM			Cc1cc(C(=O)O)cc(CNCc2nccn2Cc2ccc(F)cc2)n1 [Compound 1, 2-{[({1-[(4-fluorophenyl)methyl]-1H-imidazol-2-yl}methyl)amino]methyl}-6-methylpyridine-4-carboxylic acid]
> 10 µM	> 10 µM	4.65 µM	> 10 µM	> 10 µM	> 10 µM	> 10 µM	> 10 µM	> 10 µM		Cc1cc(C(=O)O)cc(CNCCc2ccccn2)n1 [Compound 3, 2-methyl-6-({[2-(pyridin-2-yl)ethyl]amino}methyl)pyridine-4-carboxylic acid]
> 10 µM	> 10 µM	0.03 µM	> 10 µM	> 10 µM	0.234 µM	> 10 µM	> 10 µM			CCc1cnc(CNCc2cc(C(=O)O)cc(C)n2)n1Cc1ccc(F)cc1 [Compound 4, 2-{[({5-ethyl-1-[(4-fluorophenyl)methyl]-1H-imidazol-2-yl}methyl)amino]methyl}-6-methylpyridine-4-carboxylic acid]

Further lines, the compound ahead of its results:

Structure (SMILES)	IC50 (KDM6A (UTX); [1])	IC50 (KDM6A (UTX); [2])	IC50 (KDM2B (FBXL10))	IC50 (KDM5B (PLU-1); [3])	IC50 (KDM5B (PLU-1); [4])	IC50 (PHF8 (KDM7); [5])	IC50 (KDM4C (JMJD2C); [6])	IC50 (KDM4C (JMJD2C); [7])	IC50 (PHF8 (KDM7); [8])	IC50 (KDM5B (PLU-1))
COCc1cc(C(=O)O)cc(CNCc2nccn2Cc2ccc(F)cc2)n1 [Compound 2, 2-{[({1-[(4-fluorophenyl)methyl]-1H-imidazol-2-yl}methyl)amino]methyl}-6-(methoxymethyl)pyridine-4-carboxylic acid]	> 10 µM	> 10 µM	2.94 µM	> 10 µM	> 10 µM	> 10 µM	> 10 µM	> 10 µM	> 10 µM	
C/C=C/c1cc(C(=O)O)cc(CNCc2nccn2Cc2ccc(F)cc2)n1 [Compound 5, 2-{[({1-[(4-fluorophenyl)methyl]-1H-imidazol-2-yl}methyl)amino]methyl}-6-[(1E)-prop-1-en-1-yl]pyridine-4-carboxylic acid]	> 10 µM	> 10 µM	1.6 µM	> 10 µM	> 10 µM	3.76 µM	> 10 µM	> 10 µM		
CC#Cc1cc(C(=O)O)cc(CNCc2nccn2Cc2ccc(F)cc2)n1 [Compound 6, 2-{[({1-[(4-fluorophenyl)methyl]-1H-imidazol-2-yl}methyl)amino]methyl}-6-(prop-1-yn-1-yl)pyridine-4-carboxylic acid]	> 10 µM	> 10 µM	0.708 µM			0.353 µM	> 10 µM	> 10 µM		3.35 µM
